The values that follow come from patent publication US11584763B2, “Chromenopyridine derivatives as phosphatidylinositol phosphate kinase inhibitors” (HIBERCELL, INC., priority 2017, dated 2023).

As usually defined, the IC50 is the point on the concentration scale where inhibition reaches its midpoint.

Bounds are passed on as bounds.

In assay [1] the target is T1, PIP4K 2A (Homo sapiens, UniProt P48426).
T1 sequence (P48426 1-406): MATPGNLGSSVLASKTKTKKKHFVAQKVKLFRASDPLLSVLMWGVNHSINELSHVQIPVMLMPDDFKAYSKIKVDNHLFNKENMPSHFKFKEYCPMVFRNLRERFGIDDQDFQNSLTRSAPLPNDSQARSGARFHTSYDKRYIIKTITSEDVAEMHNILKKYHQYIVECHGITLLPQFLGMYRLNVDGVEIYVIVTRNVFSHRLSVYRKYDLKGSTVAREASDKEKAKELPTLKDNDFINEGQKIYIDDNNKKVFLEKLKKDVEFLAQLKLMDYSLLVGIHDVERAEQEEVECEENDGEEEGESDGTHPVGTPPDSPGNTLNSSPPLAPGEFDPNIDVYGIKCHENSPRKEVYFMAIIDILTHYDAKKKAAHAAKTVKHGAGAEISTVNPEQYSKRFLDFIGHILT
Kind of assay: ADP-glo kinase assay PIP4K 2A. As to conditions: compounds listed under IC50 bin headings. More on the design: 4 nM PIP4K2A (full length protein, SignalChem); purchased SignalChem. Format: biochemical. In short, it runs like this:
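Inhibition was calculated versus DMSO controls from ADP-Glo luminescence and fitted to IC50 over a 10-point, threefold series. Compound was first pre-incubated 15 min at room temperature with PIP4K2A (full-length; 4 nM in the enzyme/substrate mix) and PI(5)P diC8 (100 μM in that mix). The reaction then ran for 1 h after adding 60 μM ATP solution, in MOPS pH 7.2/MgCl2/Tween buffer.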
Background: In ADP-Glo the light output rises with the ADP produced.

The target in assay [2] is T2, PIP4K2B (Homo sapiens, UniProt P78356).
T2 construct: made in house; host or cells: E. coli
T2 sequence (P78356 1-416): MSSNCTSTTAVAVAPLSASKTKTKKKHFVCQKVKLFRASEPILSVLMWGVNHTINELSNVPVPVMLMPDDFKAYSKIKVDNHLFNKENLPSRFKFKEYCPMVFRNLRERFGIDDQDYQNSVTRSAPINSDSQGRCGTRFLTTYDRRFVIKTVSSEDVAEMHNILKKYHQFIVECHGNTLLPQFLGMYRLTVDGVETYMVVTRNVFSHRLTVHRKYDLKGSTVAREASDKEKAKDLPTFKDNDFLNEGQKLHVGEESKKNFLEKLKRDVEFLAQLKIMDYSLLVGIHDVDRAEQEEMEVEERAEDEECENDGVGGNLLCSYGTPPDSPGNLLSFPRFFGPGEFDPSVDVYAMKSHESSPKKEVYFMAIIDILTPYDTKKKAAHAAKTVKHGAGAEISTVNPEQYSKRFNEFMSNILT
Description: Trans-FI P kinase assay PIP4K2B (PIP4KtypeIIB inhibition assay). Format: biochemical. The conditions noted are these: compounds listed under IC50 bin headings; 100 uM GTP; read-out: Trans-FI P kinase assays: PIP4K2B IC50. Put shortly:
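Transcreener FI fluorescence read-out of GDP formed by E. coli-expressed GST-PIP4K2B (5 nM) using 100 uM GTP and 80 uM PI5P with DOPE carrier lipid, pH 7.3, 2 h reaction. Compounds (up to 4.8 uM) were preincubated with enzyme 1 h at 27 C; IC50 fitted from residual activity relative to no-inhibitor control.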

On to `CC1Oc2cc(N3CCCC3=O)c(F)cc2-c2cnc(Nc3cnc4c(c3)N3C(=O)C(C)(C)C[C@H]3CO4)cc21` (stereo partly drawn) [Example 153, (6aS)-2-((9-fluoro-5-methyl-8-(2-oxopyrrolidin-1-yl)-5H-chromeno[4,3-c]pyridin-3-yl)amino)-8,8-dimethyl-6,6a,7,8-tetrahydro-9H-pyrido[2,3-b]pyrrolo[1,2-d][1,4]oxazin-9-one], for which the IC50 is ≤ 1 nM in assay [1] and 1 to 10 nM in assay [2].
For `O=C1NCCN1c1cncc(Nc2cc3c(cn2)-c2cc(F)c(N4CCCC4=O)cc2OC3)c1` [Example 161, 1-(5-((9-fluoro-8-(2-oxopyrrolidin-1-yl)-5H-chromeno[4,3-c]pyridin-3-yl)amino)pyridin-3-yl)imidazolidin-2-one], the IC50 was in the range of 1 to 10 nM in assay [1] and 10 to 100 nM in assay [2].
On the same counts, the results for `O=C1CCCN1c1ccc2c(c1)OCc1cc(Nc3cnc4c(c3)N3C(=O)CC[C@@H]3CO4)ncc1-2` [Example 182, (R)-2-((8-(2-oxopyrrolidin-1-yl)-5H-chromeno[4,3-c]pyridin-3-yl)amino)-6,6a,7,8-tetrahydro-9H-pyrido[2,3-b]pyrrolo[1,2-d][1,4]oxazin-9-one] are 1 to 10 nM and 1 to 10 nM.
Taken in the same sequence, the figures for `CC1Oc2cc(N3CCCC3=O)ccc2-c2cnc(Nc3cncc(NC(=O)c4ccncc4)c3)cc21` (stereo not shown) [Example 114, N-(5-((5-methyl-8-(2-oxopyrrolidin-1-yl)-5H-chromeno[4,3-c]pyridin-3-yl)amino)pyridin-3-yl)isonicotinamide] were 1 to 10 nM and 10 to 100 nM.
`CC1Oc2cc(N3CCCC3=O)ccc2-c2cnc(Nc3cncc(NC(=O)CO)c3)cc21` (stereo not shown) [Example 101, 2-hydroxy-N-(5-((5-methyl-8-(2-oxopyrrolidin-1-yl)-5H-chromeno[4,3-c]pyridin-3-yl)amino)pyridin-3-yl)acetamide]: the IC50 lay in the range of 1 to 10 nM in assay [1] and 10 to 100 nM in assay [2].
Taken in the same sequence, the figures for `CC1Oc2cc(N3CCCC3=O)c(F)cc2-c2cnc(Nc3cnc4c(c3)N3C(=O)CC[C@@H]3CO4)cc21` (stereo partly drawn) [Example 181, (6aR)-2-((9-fluoro-5-methyl-8-(2-oxopyrrolidin-1-yl)-5H-chromeno[4,3-c]pyridin-3-yl)amino)-6,6a,7,8-tetrahydro-9H-pyrido[2,3-b]pyrrolo[1,2-d][1,4]oxazin-9-one] were 1 to 10 nM and 1 to 10 nM.
For the compound `CC1Oc2cc(N3CCCC3=O)ccc2-c2cnc(Nc3cncc(NC(=O)C4Cc5ccccc5O4)c3)cc21` (stereo not shown) [Example 142, N-(5-((5-methyl-8-(2-oxopyrrolidin-1-yl)-5H-chromeno[4,3-c]pyridin-3-yl)amino)pyridin-3-yl)-2,3-dihydrobenzofuran-2-carboxamide], the IC50 in assay [1] lay within 10 to 100 nM; in assay [2] it was 100 to 1000 nM.
Taken in the same sequence, the figures for `CC1Oc2cc(N3CCCC3=O)ccc2-c2cnc(Nc3cncc(NC(=O)c4ccccn4)c3)cc21` (stereo not shown) [Example 112, N-(5-((5-methyl-8-(2-oxopyrrolidin-1-yl)-5H-chromeno[4,3-c]pyridin-3-yl)amino)pyridin-3-yl)picolinamide] were 1 to 10 nM and 10 to 100 nM.
For the compound `CC1(C)Oc2cc(N3CCCC3=O)ccc2-c2cnc(Nc3cnc4c(c3)N3C(=O)CC[C@@H]3CO4)cc21` [Example 183, (R)-2-((5,5-dimethyl-8-(2-oxopyrrolidin-1-yl)-5H-chromeno[4,3-c]pyridin-3-yl)amino)-6,6a,7,8-tetrahydro-9H-pyrido[2,3-b]pyrrolo[1,2-d][1,4]oxazin-9-one], the IC50 in assay [1] and in assay [2] was 1 to 10 nM in each case.
On to `CC1Oc2cc(N3CCCC3=O)ccc2-c2cnc(Nc3cncc(NC(=O)C4Cc5ccccc5C4)c3)cc21` (stereo not shown) [Example 138, N-(5-((5-methyl-8-(2-oxopyrrolidin-1-yl)-5H-chromeno[4,3-c]pyridin-3-yl)amino)pyridin-3-yl)-2,3-dihydro-1H-indene-2-carboxamide], for which the IC50 in assay [1] and in assay [2] was 10 to 100 nM each time.
On to `CC1Oc2cc(N3CCCC3=O)ccc2-c2cnc(Nc3cnc4cccc(S(C)(=O)=O)c4c3)cc21` (stereo not shown) [Example 92, 1-(5-methyl-3-((5-(methylsulfonyl)quinolin-3-yl)amino)-5H-chromeno[4,3-c]pyridin-8-yl)pyrrolidin-2-one], for which the IC50 in assay [1] was 1 to 10 nM; in assay [2] it was > 1000 nM.
Taken in the same sequence, the figures for `CC1Oc2cc(N3CCCC3=O)ccc2-c2cnc(Nc3cncc(NC(=O)c4cccc5[nH]cnc45)c3)cc21` (stereo not shown) [Example 196, N-(5-((5-methyl-8-(2-oxopyrrolidin-1-yl)-5H-chromeno[4,3-c]pyridin-3-yl)amino)pyridin-3-yl)-1H-benzo[d]imidazole-7-carboxamide] were 1 to 10 nM and 10 to 100 nM.
On the same counts, the results for `CC1Oc2cc(N3CCCC3=O)ccc2-c2cnc(Nc3cncc(NC(=O)c4cn5ccccc5n4)c3)cc21` (stereo not shown) [Example 139, N-(5-((5-methyl-8-(2-oxopyrrolidin-1-yl)-5H-chromeno[4,3-c]pyridin-3-yl)amino)pyridin-3-yl)imidazo[1,2-a]pyridine-2-carboxamide] are 1 to 10 nM and 10 to 100 nM.
Taken in the same sequence, the figures for `CN(C)C/C=C/C(=O)Nc1ccc(C(=O)Nc2cncc(Nc3cc4c(cn3)-c3ccc(N5CCCC5=O)cc3OC4)c2)cc1` [Example 200, (E)-4-(4-(dimethylamino)but-2-enamido)-N-(5-((8-(2-oxopyrrolidin-1-yl)-5H-chromeno[4,3-c]pyridin-3-yl)amino)pyridin-3-yl)benzamide] were 1 to 10 nM and 1 to 10 nM.
Consider `CC1Oc2cc(N3CCCC3=O)ccc2-c2cnc(Nc3cncc(NC(=O)c4cccc5c4OCO5)c3)cc21` (stereo not shown) [Example 137, N-(5-((5-methyl-8-(2-oxopyrrolidin-1-yl)-5H-chromeno[4,3-c]pyridin-3-yl)amino)pyridin-3-yl)benzo[d][1,3]dioxole-4-carboxamide], for which the IC50 lay within 1 to 10 nM in assay [1] and 10 to 100 nM in assay [2].
Taken in the same sequence, the figures for `CC1Oc2cc(N3CCCC3=O)ccc2-c2cnc(Nc3cncc(NC(=O)c4cccc5c4COB5O)c3)cc21` (stereo not shown) [Example 118, 1-hydroxy-N-(5-((5-methyl-8-(2-oxopyrrolidin-1-yl)-5H-chromeno[4,3-c]pyridin-3-yl)amino)pyridin-3-yl)-1,3-dihydrobenzo[c][1,2]oxaborole-4-carboxamide] were 1 to 10 nM and 10 to 100 nM.
On the same counts, the results for `CC1Oc2cc(N3CCCC3=O)ccc2-c2cnc(Nc3cncc(NC(=O)Nc4ccccn4)c3)cc21` (stereo not shown) [Example 102, 1-(5-((5-methyl-8-(2-oxopyrrolidin-1-yl)-5H-chromeno[4,3-c]pyridin-3-yl)amino)pyridin-3-yl)-3-(pyridin-2-yl)urea] are 1 to 10 nM and 10 to 100 nM.
Taken in the same sequence, the figures for `CC1Oc2cc(N3CCCC3=O)ccc2-c2cnc(Nc3cncc(NC(=O)c4cccc5[nH]ccc45)c3)cc21` (stereo not shown) [Example 123, N-(5-((5-methyl-8-(2-oxopyrrolidin-1-yl)-5H-chromeno[4,3-c]pyridin-3-yl)amino)pyridin-3-yl)-1H-indole-4-carboxamide] were 1 to 10 nM and 1 to 10 nM.
As to `CC1Oc2cc(N3CCCC3=O)ccc2-c2cnc(Nc3cncc(NC(=O)C4CCCO4)c3)cc21` (stereo not shown) [Example 135, N-(5-((5-methyl-8-(2-oxopyrrolidin-1-yl)-5H-chromeno[4,3-c]pyridin-3-yl)amino)pyridin-3-yl)tetrahydrofuran-2-carboxamide], the IC50 lay within 1 to 10 nM in assay [1] and 10 to 100 nM in assay [2].
On the same counts, the results for `CC1Oc2cc(N3CCCC3=O)ccc2-c2cnc(Nc3cncc(NC(=O)CCC(=O)O)c3)cc21` (stereo not shown) [Example 105, 4-((5-((5-methyl-8-(2-oxopyrrolidin-1-yl)-5H-chromeno[4,3-c]pyridin-3-yl)amino)pyridin-3-yl)amino)-4-oxobutanoic acid] are 1 to 10 nM and 10 to 100 nM.
